Data from patent publication US8895624B2, “Treatment of osteoporosis” (Haoma Medica Ltd., priority 2009, dated 2014).

What was measured:
[1] = system: osteoblast-like MG63 cells; assay: Viability of MG63 cells by uptake of 3H labelled Thymine in the formation of DNA; type: cell-based, human; details: concentrations 10^−8M to 10^−5M, compared with control samples
[2] = system: cultured cell lines derived from skin and liver; assay: Cell toxicity in cultured cell lines derived from skin and liver; type: cell-based
[3] = system: bone loss induced by oviarectomy; assay: Oviarectomized (oestrogen deficient) mouse model of osteoporosis, tibial μCT; type: in vivo, C57Black mice; details: OVx mice, 15 μg/mouse/day intraperitoneally, 5 weeks
Excerpt: The most widely accepted animal model of osteoporosis is the oestrogen deficient rodent, with this model the effect of the present invention has been tested in vivo. All procedures were done under Home Office licence and full local ethical requirements. C57Black mice were randomly assigned to receive total bi-lateral oviarectomy or sham operation. The oviarectomized animals were randomly assigned for treatment or to an untreated control group. At operation eight animals were in each group. • The mice were housed under standard animal house conditions with 12 hour light dark cycles in temperature and humidity controlled conditions for 5 weeks. The Sham and control oviarectomized mice received 10% ethanol in saline vehicle injections intraperitoneally once per day. The NaQuinate treated mice received a single injection (15 μg/mouse/day) administered in 10% ethanol in saline injections intraperitoneally. All mice received the same volume of test sample and this complied with Home Office regulations. • After 5 weeks treatment the animals were sacrificed by a Schedule 1 method and the tibiae removed for X-ray micro-Computer Tomography (μCT) imaging analyses.

[4] = system: bone loss in neurectomized limbs; assay: Disuse osteoporosis induced by sciatic neurectomy, tibial μCT; type: in vivo, mice
Description: Disuse osteoporosis was induced by right side sciatic neurectomy (SN). Mice were anaesthetized with oxygen and halothane and SN was achieved by resecting a 3-4 mm segment of the sciatic nerve posterior to the hip joint. On the 4th day after surgery mice were treated with either; control or NaQuinate for 5 days/week for 2 weeks. The tibias of both limbs were analysed by micro computerized tomography (μCT).

[5] = system: interleukin-6 release from MG63 osteoblast-like cells; assay: Inhibition of E. coli LPS-stimulated interleukin-6 release from cultured MG63 osteoblast-like cells; type: cell-based, human; details: E. coli LPS 25 ng/ml
Excerpt: 1. There are numerous factors that regulate bone physiology. Targeting the agents that induce bone resorption by recruiting/activating the cells that induce bone loss (the osteoclasts) has had limited exposure/efficacy. Most current therapies target the osteoclasts once they have been recruited or activated. A family of locally (bone) produced proteins called cytokines can induce a range of stimuli that can affect osteoclast number/activity. One of these cytokines is called interleukin-6 (IL-6). IL-6 is released by many cell types, including the bone forming cells (osteoblasts), following challenge from a range of agonists. These agonists can be physiological (1,25(OH)2 vitamin D3, interleukin-1β) or pathophysiological (interleukin-1β; bacterial endotoxin). • In vitro studies focussed on an immortalised osteoblast-like cell line called MG63 that was derived from a human osteosarcoma (bone cancer). These cells were cultured and screened for their ability to synthesize and release a range of cytokines including IL-6. Due to the well described activities of IL-6 induced bone loss this cytokine was focussed upon (see Manolagas S. C., Ann N Y Acad. Sci. 1998 May 1; 840:194-204). […] IL-6 can be measured by commercial immunoassays, for example, the QuantiGlo IL-6 Immunoassay from R&D systems.

[6] = neurectomized limbs, treated 5 days/week for 2 weeks
[7] = normal (non-neurectomized) bone

Structure (SMILES)	DNA synthesis (3H-Thymine incorporation) of MG63 cells [1]	cell toxicity [2]	percentage bone content (bone volume) in the trabecular compartment [3]	trabecular number, tibial trabecular compartment [3]	bone loss assessed by % bone volume [4, 6]	bone loss assessed by trabecular number [4, 6]	normal bone trabecular number [4, 7]	normal bone volume [4, 7]	inhibition of LPS-stimulated interleukin-6 release (in words) [5]
CC1=C(C/C=C(\C)CCC(=O)O)C(=O)c2ccccc2C1=O [NaQuinate (VIII), (4E)-6-(1,4-dihydro-2-methyl-1,4-dioxonaphthalen-3-yl)-4-methylhex-4-enoic acid]	continue normal DNA synthesis under all concentrations tested	lack of cell toxicity	completely attenuated the bone loss	completely attenuated the bone loss	inhibits bone loss in neurectomized limbs	inhibits bone loss in neurectomized limbs	does not alter normal bone trabecular number	does not alter normal bone volume	–
CC1=C(CCCCCCCC(=O)O)C(=O)c2ccccc2C1=O [XV, 8-(1,4-dihydro-2-methyl-1,4-dioxonaphthalen-3-yl)octanoic acid]	–	–	–	–	–	–	–	–	completely inactive
CC1=C(C/C=C(\C)C(=O)O)C(=O)c2ccccc2C1=O [KCAT-5C (XIV), (2E)-4-(1,4-dihydro-2-methyl-1,4-dioxonaphthalen-3-yl)-2-methylbut-2-enoic acid]	–	–	–	–	–	–	–	–	only active inhibiting Interleukin-6 from cultured MG63 osteoblast-like cells at very high concentrations (10^−5 M)
